These results are taken from PMC4758734, “Purification and Characterization of Glutaminase Free Asparaginase from Enterobacter cloacae: In-Vitro Evaluation of Cytotoxic Potential against Human Myeloid Leukemia HL-60 Cells” (PLoS ONE, 2016).

The test system of this experiment is T1, glutaminase free asparaginase from Enterobacter cloacae.
T1 construct: gene ansB; native, purified from culture supernatant (ammonium sulphate, DEAE-cellulose, Sephadex G-100); EC 3.5.1.1
Nature of the experiment: Nesslerization (ammonia release), Lineweaver-Burk plot. Format: biochemical. The settings on record: 0.05 M phosphate buffer pH 7.5, 37°C; L-asparagine 0.2–24 mM.

For orientation: Km means the concentration of substrate that gives half-maximal velocity.

Regarding `NC(=O)C[C@H](N)C(=O)O` [L-asparagine], the Km was found to be 1580 µM.
